Molecular target: ATP-dependent translocase ABCB1 (Homo sapiens, UniProt P08183)
Assay: TP_TRANSPORTER: Western in vivo, quantitative immunohistochemistry
Assay type: functional, organism-based

Sequence of ATP-dependent translocase ABCB1 (P08183 whole entry): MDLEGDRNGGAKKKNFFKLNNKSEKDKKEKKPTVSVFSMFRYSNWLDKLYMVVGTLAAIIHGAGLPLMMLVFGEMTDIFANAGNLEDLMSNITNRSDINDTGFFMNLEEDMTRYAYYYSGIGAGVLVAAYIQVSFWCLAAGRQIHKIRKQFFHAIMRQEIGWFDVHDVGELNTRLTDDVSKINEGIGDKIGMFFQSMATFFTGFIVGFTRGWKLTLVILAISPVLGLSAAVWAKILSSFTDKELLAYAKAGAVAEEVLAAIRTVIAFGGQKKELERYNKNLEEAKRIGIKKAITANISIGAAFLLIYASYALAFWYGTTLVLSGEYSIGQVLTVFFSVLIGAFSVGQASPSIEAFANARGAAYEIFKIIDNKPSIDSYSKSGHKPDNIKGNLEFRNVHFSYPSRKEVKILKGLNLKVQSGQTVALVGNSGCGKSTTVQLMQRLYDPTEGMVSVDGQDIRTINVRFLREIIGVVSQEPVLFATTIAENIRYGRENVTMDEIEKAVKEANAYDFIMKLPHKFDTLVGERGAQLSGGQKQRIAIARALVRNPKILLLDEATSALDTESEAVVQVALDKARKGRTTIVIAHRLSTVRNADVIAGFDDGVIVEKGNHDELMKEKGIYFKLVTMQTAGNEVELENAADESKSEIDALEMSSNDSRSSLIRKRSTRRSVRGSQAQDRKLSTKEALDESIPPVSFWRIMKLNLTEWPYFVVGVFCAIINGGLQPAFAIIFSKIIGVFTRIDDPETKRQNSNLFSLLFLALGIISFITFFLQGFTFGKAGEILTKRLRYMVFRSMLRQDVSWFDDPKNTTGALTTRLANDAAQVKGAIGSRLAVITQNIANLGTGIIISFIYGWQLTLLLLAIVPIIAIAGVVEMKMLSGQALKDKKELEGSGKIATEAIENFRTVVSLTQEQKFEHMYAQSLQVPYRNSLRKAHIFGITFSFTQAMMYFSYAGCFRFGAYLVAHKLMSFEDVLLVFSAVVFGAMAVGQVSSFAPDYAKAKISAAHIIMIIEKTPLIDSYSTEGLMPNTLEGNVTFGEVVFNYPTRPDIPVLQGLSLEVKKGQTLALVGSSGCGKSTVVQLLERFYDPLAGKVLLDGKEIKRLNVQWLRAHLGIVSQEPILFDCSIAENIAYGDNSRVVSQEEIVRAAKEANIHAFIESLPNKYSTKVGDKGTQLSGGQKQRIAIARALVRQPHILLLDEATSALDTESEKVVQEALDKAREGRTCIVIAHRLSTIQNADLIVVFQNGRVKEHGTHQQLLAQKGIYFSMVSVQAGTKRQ

Activity: inducer [+]
SMILES: CO[C@H]1/C=C/O[C@@]2(C)Oc3c(C)c(O)c4c(O)c(c(/C=N/N5CCN(C)CC5)c(O)c4c3C2=O)NC(=O)/C(C)=C\C=C\[C@H](C)[C@H](O)[C@@H](C)[C@@H](O)[C@@H](C)[C@H](OC(C)=O)[C@@H]1C [RIFAMPIN]

From ChEMBL document CHEMBL2074195, “The role of intestinal P-glycoprotein in the interaction of digoxin and rifampin” (J Clin Invest, 1999)
